The values that follow come from patent US20240150293A1, “SPIROCYCLOHEXANE DERIVATIVES, PHARMACEUTICAL COMPOSITIONS CONTAINING THEM AND THEIR USES AS ANTI-APOPTOTIC INHIBITORS” (LES LABORATOIRES SERVIER, priority 2021, published 2024).

The structures appear in SMILES notation. pKi: −log10 of the molar value.

The target in the assay is Mcl-1 protein (UniProtKB Q07820) (Homo sapiens (Human), UniProt Q07820). The experiment in a line: Inhibition of Mcl-1 by the fluorescence polarisation assay (Example A, Method A). The assay is classed as binding. The settings on record: fluorescence polarization assay. As to the method: The relative binding potency of each compound was determined via Fluorescence Polarisation (FP). The method utilised a Fluorescein labelled ligand (Fluorescein-βAla-Ahx-A-REIGAQLRRMADDLNAQY-OH; MW 2,765) which binds to the Mcl-1 protein (such that Mcl-1 corresponds to the UniProtKB® primary accession number: Q07820) leading to an increased anisotropy measured in milli-polarisation (mP) units using a reader. The addition of a compound which binds competitively to the same site as the ligand will result in a greater proportion of unbound ligand in the system indicated by a decrease in mP units.
An 11 point serial dilution of each compound was prepared in DMSO and 2 μl transferred into flat bottomed, low binding, 384-well plate (final DMSO concentration 5%). 38 μl of buffer containing the Fluorescein labelled ligand (final concentration 1 nM) and Mcl-1 protein (final concentration 5 nM) was then added. Buffer components were 10 mM 4-(2-hydroxyethyl)-1-piperazineethanesulfonic acid [HEPES], 150 mM NaCl, pH 7.4 with the addition of 0.05% Tween 20.
Assay plates were incubated for 2 hours at room temperature before FP was measured on a […] Synergy Neo reader ([…], Cut off 510 nm) and mP units calculated. The binding of increasing doses of test compound was expressed as a percentage reduction in mP compared to a window established between ‘5% DMSO only’ and ‘100% inhibition’ controls. 11-point dose response curves were plotted with XL-Fit software using a 4-Parameter Logistic Model (Sigmoidal Dose-Response Model) and the inhibitory concentrations that gave a 50% reduction in mP (IC50) were determined. The Ki values were determined from the IC50 values according to Cer et al, Nucleic Acids Res, 2009, 37 (WebServer issue): W441-W445. Inhibition constants (Ki) are determined from complete binding inhibition curves (cKi) or from estimated from incomplete binding inhibition curves (eKi) in most cases due to low activity.

Chain of Mcl-1 protein (Q07820 whole entry): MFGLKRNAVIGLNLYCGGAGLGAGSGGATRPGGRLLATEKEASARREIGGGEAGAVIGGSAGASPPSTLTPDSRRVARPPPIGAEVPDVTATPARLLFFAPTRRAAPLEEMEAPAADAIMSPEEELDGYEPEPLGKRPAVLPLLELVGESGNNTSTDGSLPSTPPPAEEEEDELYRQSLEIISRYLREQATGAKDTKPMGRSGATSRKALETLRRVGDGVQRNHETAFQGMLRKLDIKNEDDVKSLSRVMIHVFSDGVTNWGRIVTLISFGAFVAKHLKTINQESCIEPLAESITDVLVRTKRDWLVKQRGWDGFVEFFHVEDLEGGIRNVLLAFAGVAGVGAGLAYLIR

Take `O=C(O)[C@]1(Nc2cccc(Br)c2)CC[C@]2(CC1)c1ccccc1CC2CCc1ccccn1` (mixture of isomers) [Example 176, (1s,4s)-4-(3-bromoanilino)-2′-[2-(pyridin-2-yl)ethyl]-2′,3′-dihydrospiro[cyclohexane-1,1′-indene]-4-carboxylic acid]: the pKi is 4.93. The result for `O=C(O)C1(Nc2cccc(Br)c2)CCC2(CC1)c1ccccc1CC2CCc1ccccc1` (racemic) [Example 201, 4-(3-bromoanilino)-2′-(2-phenylethyl)-2′,3′-dihydrospiro[cyclohexane-1,1′-indene]-4-carboxylic acid] reads 5.82.

Regarding `CC[C@H]1c2ccccc2[C@]2(CC[C@@](Nc3cccc(Cl)c3)(C(=O)O)CC2)[C@H]1C` (racemic) [Example 207, (1r,2′RS,3′SR,4r)-4-(3-chloroanilino)-3′-ethyl-2′-methyl-2′,3′-dihydrospiro[cyclohexane-1,1′-indene]-4-carboxylic acid], the pKi was 5.33.

For `COc1cccc(Cl)c1C1Cc2ccccc2[C@]12CC[C@@](Nc1cccc(Cl)c1)(C(=O)O)CC2` (mixture of isomers) [Example 283, (1r,4r)-4-(3-chloroanilino)-2′-(2-chloro-6-methoxyphenyl)-2′,3′-dihydrospiro[cyclohexane-1,1′-indene]-4-carboxylic acid], the pKi was 5.38. The value for `COc1cccc(C)c1C1Cc2ccccc2[C@]12CC[C@@](Nc1cccc(Cl)c1)(C(=O)O)CC2` (mixture of isomers) [Example 286, (1r,4r)-4-(3-chloroanilino)-2′-(2-methoxy-6-methylphenyl)-2′,3′-dihydrospiro[cyclohexane-1,1′-indene]-4-carboxylic acid] was 5.24. The result for `Cc1n[nH]c2cccc(OCCCC3Cc4ccccc4[C@]34CC[C@@](Nc3cccc(Cl)c3)(C(=O)O)CC4)c12` (mixture of isomers) [Example 453, (1r,4r)-4-(3-chloroanilino)-2′-{3-[(3-methyl-1H-indazol-4-yl)oxy]propyl}-2′,3′-dihydrospiro[cyclohexane-1,1′-indene]-4-carboxylic acid] reads 6.50. Regarding `CC(C)c1cncnc1OCCCC1Cc2ccccc2[C@]12CC[C@@](Nc1cccc(Cl)c1)(C(=O)O)CC2` (mixture of isomers) [Example 461, (1r,4r)-4-(3-chloroanilino)-2′-(3-{[5-(propan-2-yl)pyrimidin-4-yl]oxy}propyl)-2′,3′-dihydrospiro[cyclohexane-1,1′-indene]-4-carboxylic acid], the pKi was 6.49. As for `O=C(O)[C@]1(Nc2cccc(Cl)c2)CC[C@@]2(CC1)c1ccccc1CC2[C@H]1C[C@@H]1COc1ccccc1` (relative stereo) [Example 109, (1r,4r)-4-(3-chloroanilino)-2′-[(1R*,2S*)-2-(phenoxymethyl)cyclopropyl]-2′,3′-dihydrospiro[cyclohexane-1,1′-indene]-4-carboxylic acid], the pKi was 6.13. `O=C(O)[C@]1(Nc2cccc(Cl)c2)CC[C@@]2(CC1)c1ccccc1CC2[C@H]1C[C@@H]1COc1ccccc1` (relative stereo) [Example 110, (1r,4r)-4-(3-chloroanilino)-2′-[(1R*,2S*)-2-(phenoxymethyl)cyclopropyl]-2′,3′-dihydrospiro[cyclohexane-1,1′-indene]-4-carboxylic acid]: the pKi is 5.07. Turning to `O=C(O)[C@]1(Nc2cccc(Cl)c2)CC[C@@]2(CC1)c1ccccc1CC2[C@H]1C[C@@H]1COc1ccccc1` (relative stereo) [Example 111, (1r,4r)-4-(3-chloroanilino)-2′-[(1R*,2S*)-2-(phenoxymethyl)cyclopropyl]-2′,3′-dihydrospiro[cyclohexane-1,1′-indene]-4-carboxylic acid], the pKi is 5.01. As to `O=C(O)C1(Nc2cccc(Br)c2)CCC2(CC1)C(=O)N1CCCc3cc(Br)cc2c31` (single isomer, unassigned) [Example 14, 8′-bromo-4-(3-bromoanilino)-2′-oxo-5′,6′-dihydro-2′H,4′H-spiro[cyclohexane-1,1′-pyrrolo[3,2,1-ij]quinoline]-4-carboxylic acid], the pKi is 5.28. As to `CN1c2ccccc2C2(CCC(Nc3cccc(Br)c3)(C(=O)O)CC2)C1CCc1ccccc1` (single isomer, unassigned) [Example 25, 4-(3-bromoanilino)-1′-methyl-2′-(2-phenylethyl)-1′,2′-dihydrospiro[cyclohexane-1,3′-indole]-4-carboxylic acid], the negative logarithm of the Ki (pKi) is 6.05.

Regarding `Cc1ccc(S(=O)(=O)N2Cc3ccccc3C23CCC(Nc2cccc(Cl)c2)(C(=O)O)CC3)cc1` (single isomer, unassigned) [Example 28, 4-(3-chloroanilino)-2′-(4-methylbenzene-1-sulfonyl)-2′,3′-dihydrospiro[cyclohexane-1,1′-isoindole]-4-carboxylic acid], the negative logarithm of the Ki (pKi) was 4.83. The result for `Cc1ccc(S(=O)(=O)N2Cc3ccccc3C23CCC(Nc2cccc(Cl)c2)(C(=O)O)CC3)cc1` (single isomer, unassigned) [Example 29, 4-(3-chloroanilino)-2′-(4-methylbenzene-1-sulfonyl)-2′,3′-dihydrospiro[cyclohexane-1,1′-isoindole]-4-carboxylic acid] reads 4.80; that for `O=C(O)C1(Nc2cccc(Br)c2)CCC2(C=Cc3ccccc32)CC1` (single isomer, unassigned) [Example 58, 4-(3-bromoanilino)spiro[cyclohexane-1,1′-indene]-4-carboxylic acid], 6.16; that for `O=C(O)C1(Nc2cccc(Br)c2)CCC2(C=Cc3cccc(Br)c32)CC1` (single isomer, unassigned) [Example 59, 7′-bromo-4-(3-bromoanilino)spiro[cyclohexane-1,1′-indene]-4-carboxylic acid], 5.38. The value for `O=C(O)C1(Nc2cccc(Cl)c2)CCC2(C=Cc3cccnc32)CC1` (single isomer, unassigned) [Example 71, 4-(3-chloroanilino)spiro[cyclohexane-1,7′-cyclopenta[b]pyridine]-4-carboxylic acid] was 6.01; that for `O=C(O)C1(Nc2cccc(Cl)c2)CCC2(C=Cc3cccnc32)CC1` (single isomer, unassigned) [Example 72, 4-(3-chloroanilino)spiro[cyclohexane-1,7′-cyclopenta[b]pyridine]-4-carboxylic acid] was 3.72. The result for `O=C(O)[C@]1(Nc2cccc(Cl)c2)CC[C@@]2(CC1)c1ccccc1CC2C1CCCC1` (single isomer, unassigned) [Example 91, (1r,4r)-4-(3-chloroanilino)-2′-cyclopentyl-2′,3′-dihydrospiro[cyclohexane-1,1′-indene]-4-carboxylic acid] reads 5.84; that for `O=C(O)[C@]1(Nc2cccc(Cl)c2)CC[C@@]2(CC1)c1ccccc1CC2C1CCCC1` (single isomer, unassigned) [Example 92, (1r,4r)-4-(3-chloroanilino)-2′-cyclopentyl-2′,3′-dihydrospiro[cyclohexane-1,1′-indene]-4-carboxylic acid], 5.13; that for `O=C(O)[C@]1(Nc2cccc(Cl)c2)CC[C@@]2(CC1)c1ccccc1CC2[C@H]1C[C@@H]1COc1ccnc2ccsc12` (single isomer, unassigned) [Example 103, (1r,4r)-4-(3-chloroanilino)-2′-[(1R*,2S*)-2-{[(thieno[3,2-b]pyridin-7-yl)oxy]methyl}cyclopropyl]-2′,3′-dihydrospiro[cyclohexane-1,1′-indene]-4-carboxylic acid], 6.67.

Consider `O=C(O)[C@]1(Nc2cccc(Cl)c2)CC[C@@]2(CC1)c1ccccc1CC2[C@H]1C[C@@H]1COc1ccnc2ccsc12` (single isomer, unassigned) [Example 104, (1r,4r)-4-(3-chloroanilino)-2′-[(1R*,2S*)-2-{[(thieno[3,2-b]pyridin-7-yl)oxy]methyl}cyclopropyl]-2′,3′-dihydrospiro[cyclohexane-1,1′-indene]-4-carboxylic acid], for which the pKi was 5.87. For the compound `O=C(O)[C@]1(Nc2cccc(Cl)c2)CC[C@@]2(CC1)c1ccccc1CC2[C@H]1C[C@@H]1COc1ccnc2ccsc12` (single isomer, unassigned) [Example 105, (1r,4r)-4-(3-chloroanilino)-2′-[(1R*,2S*)-2-{[(thieno[3,2-b]pyridin-7-yl)oxy]methyl}cyclopropyl]-2′,3′-dihydrospiro[cyclohexane-1,1′-indene]-4-carboxylic acid], the pKi was 5.43. The value for `O=C(O)[C@]1(Nc2cccc(Cl)c2)CC[C@@]2(CC1)c1ccccc1CC2[C@H]1C[C@@H]1COc1ccnc2ccsc12` (single isomer, unassigned) [Example 106, (1r,4r)-4-(3-chloroanilino)-2′-[(1R*,2S*)-2-{[(thieno[3,2-b]pyridin-7-yl)oxy]methyl}cyclopropyl]-2′,3′-dihydrospiro[cyclohexane-1,1′-indene]-4-carboxylic acid] was 5.65.
